Test results as given in ChEMBL document CHEMBL3217672, “Optimization of a series of dipeptides with a P3 -neopentyl asparagine residue as non-covalent inhibitors of the chymotrypsin-like activity of human 20S proteasome” (Medchemcomm, 2012).
The source made the active and inactive calls. The rule behind the calls is not given here.

Experiments:
[1] = target: T1, Proteasome Macropain subunit MB1 (Homo sapiens, UniProt P28074); assay: Inhibition of 20S proteasome beta5 subunit in human erythrocytes using Ac-WLA-AMC as substrate by fluorescence assay; assay type: cell-based
T1 sequence (P28074 whole entry): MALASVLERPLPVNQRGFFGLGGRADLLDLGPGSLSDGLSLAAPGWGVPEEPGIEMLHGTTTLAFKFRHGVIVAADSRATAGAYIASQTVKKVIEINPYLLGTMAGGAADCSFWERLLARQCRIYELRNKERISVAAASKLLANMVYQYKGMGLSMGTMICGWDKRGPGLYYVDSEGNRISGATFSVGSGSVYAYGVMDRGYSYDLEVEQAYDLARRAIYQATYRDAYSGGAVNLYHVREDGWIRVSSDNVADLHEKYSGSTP

[2] = target: T1, Proteasome Macropain subunit MB1; assay: Inhibition of 26S proteasome beta5 subunit in human Calu6 cells using Suc-LLVY-aminoluciferin as substrate after 1hr by luminescence assay; assay type: cell-based, Calu-6
[3] = Cytotoxicity against human Calu6 cells after 72 hrs by luminescence assay; assay type: functional; settings: Calu-6, 72 h, read-out: LC50 (the source's name)
[4] = target: Cathepsin B (Homo sapiens) (UniProt P07858); assay: Inhibition of human purified cathepsin B at 100 uM
[5] = target: Procathepsin L (Homo sapiens) (UniProt P07711); assay: Inhibition of human purified cathepsin L at 100 uM
[6] = target: T2, Coagulation factor XII (Homo sapiens) (UniProt P00748); assay: Inhibition of human purified coagulation factor 12a at 100 uM
T2 sequence (whole entry): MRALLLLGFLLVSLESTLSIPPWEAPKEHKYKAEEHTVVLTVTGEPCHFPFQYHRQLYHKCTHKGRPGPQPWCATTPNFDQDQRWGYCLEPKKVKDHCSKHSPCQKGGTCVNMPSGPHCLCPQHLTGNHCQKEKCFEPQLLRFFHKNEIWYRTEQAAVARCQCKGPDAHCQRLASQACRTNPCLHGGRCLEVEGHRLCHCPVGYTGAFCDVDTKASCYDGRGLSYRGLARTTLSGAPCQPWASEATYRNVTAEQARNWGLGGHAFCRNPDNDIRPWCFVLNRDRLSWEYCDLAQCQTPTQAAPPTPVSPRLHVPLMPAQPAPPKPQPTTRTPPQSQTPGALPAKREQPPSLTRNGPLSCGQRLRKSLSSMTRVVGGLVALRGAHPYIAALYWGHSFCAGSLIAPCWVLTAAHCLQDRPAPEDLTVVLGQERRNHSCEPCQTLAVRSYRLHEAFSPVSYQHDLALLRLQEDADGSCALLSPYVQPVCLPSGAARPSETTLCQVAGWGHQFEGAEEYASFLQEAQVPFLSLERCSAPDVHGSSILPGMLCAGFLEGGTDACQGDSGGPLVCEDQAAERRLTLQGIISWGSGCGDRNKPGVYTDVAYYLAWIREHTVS

Homo sapiens [7] = species: Homo sapiens; assay: Inhibition of human purified chymotrypsin at 100 uM
Homo sapiens [8] = species: Homo sapiens; assay: Inhibition of human purified elastase at 100 uM
[9] = target: Plasminogen (Homo sapiens) (UniProt P00747); assay: Inhibition of human purified plasmin at 100 uM
[10] = target: Prothrombin (Homo sapiens) (UniProt P00734); assay: Inhibition of human purified thrombin at 100 uM
[11] = target: Tissue-type plasminogen activator (Homo sapiens) (UniProt P00750); assay: Inhibition of human purified tissue-type plasminogen activator at 100 uM
Trypsin (Homo sapiens) = Trypsin (Homo sapiens) (UniProt P07477+P07478+P35030); assay: Inhibition of human purified trypsin at 100 uM; assay type: protein assay
[12] = target: T3, Calpain-1 catalytic subunit (Homo sapiens) (UniProt P07384); assay: Inhibition of human purified calpain 1 at 100 uM
T3 sequence (whole entry): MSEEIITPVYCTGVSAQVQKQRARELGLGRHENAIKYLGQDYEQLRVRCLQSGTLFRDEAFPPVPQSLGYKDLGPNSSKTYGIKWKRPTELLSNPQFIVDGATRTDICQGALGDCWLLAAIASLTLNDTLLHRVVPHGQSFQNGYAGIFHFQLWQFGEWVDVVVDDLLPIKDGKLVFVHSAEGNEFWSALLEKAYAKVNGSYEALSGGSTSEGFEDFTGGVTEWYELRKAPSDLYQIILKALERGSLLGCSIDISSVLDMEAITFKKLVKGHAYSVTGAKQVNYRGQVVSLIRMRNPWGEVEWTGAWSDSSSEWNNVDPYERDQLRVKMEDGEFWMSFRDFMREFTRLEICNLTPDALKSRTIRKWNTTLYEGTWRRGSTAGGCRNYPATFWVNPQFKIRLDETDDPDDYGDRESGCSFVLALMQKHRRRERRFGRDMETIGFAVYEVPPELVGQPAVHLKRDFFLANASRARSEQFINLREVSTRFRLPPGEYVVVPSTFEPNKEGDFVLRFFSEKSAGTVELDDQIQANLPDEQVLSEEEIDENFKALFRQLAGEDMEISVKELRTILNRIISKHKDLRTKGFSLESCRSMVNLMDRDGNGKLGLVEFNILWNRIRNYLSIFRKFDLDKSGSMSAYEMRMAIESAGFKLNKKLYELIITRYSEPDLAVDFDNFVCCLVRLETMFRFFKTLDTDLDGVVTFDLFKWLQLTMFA

Chain of Procathepsin L (Homo sapiens) (P07711 114-333 limits assumed): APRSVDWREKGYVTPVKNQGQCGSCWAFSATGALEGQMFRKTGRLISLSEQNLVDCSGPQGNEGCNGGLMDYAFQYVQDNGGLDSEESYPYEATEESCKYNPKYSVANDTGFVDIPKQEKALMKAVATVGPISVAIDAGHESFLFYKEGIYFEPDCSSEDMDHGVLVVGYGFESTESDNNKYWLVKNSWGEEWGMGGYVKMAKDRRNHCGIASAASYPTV
Chain of Plasminogen (Homo sapiens) (P00747 97-580 limits assumed): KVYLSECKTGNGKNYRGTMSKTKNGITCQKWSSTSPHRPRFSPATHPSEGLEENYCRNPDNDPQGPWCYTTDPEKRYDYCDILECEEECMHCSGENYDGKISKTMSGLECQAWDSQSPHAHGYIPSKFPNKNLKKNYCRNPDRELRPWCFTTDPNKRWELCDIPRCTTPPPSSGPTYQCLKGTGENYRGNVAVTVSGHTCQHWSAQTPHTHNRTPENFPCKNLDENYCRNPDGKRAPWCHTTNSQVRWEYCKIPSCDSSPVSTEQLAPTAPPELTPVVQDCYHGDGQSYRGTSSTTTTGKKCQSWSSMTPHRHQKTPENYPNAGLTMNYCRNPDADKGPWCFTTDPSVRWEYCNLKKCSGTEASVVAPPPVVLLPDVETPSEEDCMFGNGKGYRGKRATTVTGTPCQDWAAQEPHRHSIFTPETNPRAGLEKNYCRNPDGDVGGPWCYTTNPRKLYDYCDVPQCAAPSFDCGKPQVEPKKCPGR
Chain of Plasminogen (Homo sapiens) (P00747 581-810 limits assumed): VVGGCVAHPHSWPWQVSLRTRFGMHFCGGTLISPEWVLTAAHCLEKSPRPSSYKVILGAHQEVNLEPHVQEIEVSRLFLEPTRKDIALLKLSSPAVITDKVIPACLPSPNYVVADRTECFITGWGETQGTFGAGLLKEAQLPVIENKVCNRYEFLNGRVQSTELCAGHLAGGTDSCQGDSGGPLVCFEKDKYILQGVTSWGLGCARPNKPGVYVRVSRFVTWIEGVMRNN
Chain of Tissue-type plasminogen activator (Homo sapiens) (P00750 36-562 limits assumed): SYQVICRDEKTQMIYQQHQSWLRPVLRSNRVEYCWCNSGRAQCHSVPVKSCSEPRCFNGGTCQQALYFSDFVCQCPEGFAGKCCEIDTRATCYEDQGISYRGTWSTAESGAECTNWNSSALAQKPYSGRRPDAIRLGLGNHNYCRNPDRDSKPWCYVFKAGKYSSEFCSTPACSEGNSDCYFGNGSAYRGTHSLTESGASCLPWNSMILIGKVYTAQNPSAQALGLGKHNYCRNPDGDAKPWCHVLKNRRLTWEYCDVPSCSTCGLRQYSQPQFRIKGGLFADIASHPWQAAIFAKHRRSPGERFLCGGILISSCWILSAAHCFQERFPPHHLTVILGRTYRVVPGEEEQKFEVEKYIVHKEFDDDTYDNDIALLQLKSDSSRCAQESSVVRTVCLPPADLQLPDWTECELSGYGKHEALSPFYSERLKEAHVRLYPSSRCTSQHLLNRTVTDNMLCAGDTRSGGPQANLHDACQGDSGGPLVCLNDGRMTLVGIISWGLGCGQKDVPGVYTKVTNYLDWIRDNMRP

| Structure (SMILES) | IC50 [1] [nM] | CC50 [3] [nM] | also measured |
| --- | --- | --- | --- |
| CC(C)(C)CNC(=O)C[C@H](NC(=O)CCc1ccccc1)C(=O)N[C@@H](CCc1ccccc1)C(=O)NCC1CC1 | 12 | 150 | IC50 [2]: 360 nM |
| CC(C)(C)CNC(=O)C[C@H](NC(=O)C(=O)c1c[nH]c2ccccc12)C(=O)N[C@@H](CCc1ccccc1)C(=O)NCc1ccccc1 |  | 2.6 |  |
| CC(C)(C)CNC(=O)C[C@H](NC(=O)c1ccc(OCc2ccccc2)cc1)C(=O)N[C@@H](CCc1ccccc1)C(=O)NCc1ccccc1Cl |  | 4.7 |  |
| CC(C)(C)CNC(=O)C[C@H](NC(=O)Cc1ccc(F)cc1)C(=O)N[C@@H](CCc1ccccc1)C(=O)NCc1ccccc1 |  | 120 |  |
| Cc1ccc(CNC(=O)[C@H](CCc2ccccc2)NC(=O)[C@H](CCc2ccccc2)NC(=O)[C@H](CCc2ccccc2)NC(=O)c2cnc(C)cn2)cc1 | 16 | 130 | IC50 [2]: 53 nM |
| CC(C)(C)CNC(=O)C[C@H](NC(=O)C(=O)c1c[nH]c2ccccc12)C(=O)N[C@@H](CCc1ccccc1)C(=O)NCc1ccccc1Cl |  | 2.4 | inhibition [4]: inactive; inhibition [5]: inactive; inhibition [6]: inactive; inhibition (Homo sapiens [7]): inactive; inhibition (Homo sapiens [8]): inactive; inhibition [9]: inactive; inhibition [10]: inactive; inhibition [11]: inactive; inhibition (Trypsin (Homo sapiens)): inactive; inhibition [12]: inactive |
| Cc1cc(C(=O)N[C@@H](CC(=O)NCC(C)(C)C)C(=O)N[C@@H](CCc2ccccc2)C(=O)NCc2ccccc2)no1 |  | 27 |  |
| Cc1cc(C(=O)N[C@@H](CC(=O)NCC(C)(C)C)C(=O)N[C@@H](CCc2ccccc2)C(=O)NCc2ccccc2Cl)no1 |  | 41 | inhibition [4]: inactive; inhibition [5]: inactive; inhibition [6]: inactive; inhibition (Homo sapiens [7]): inactive; inhibition (Homo sapiens [8]): inactive; inhibition [9]: inactive; inhibition [10]: inactive; inhibition [11]: inactive; inhibition (Trypsin (Homo sapiens)): inactive; inhibition [12]: inactive |
| CC(=O)N[C@@H](CC(=O)NCC(C)(C)C)C(=O)N[C@@H](CCc1ccccc1)C(=O)NCc1ccccc1 |  | 890 |  |
| Cc1ccc(CNC(=O)[C@H](CCc2ccccc2)NC(=O)[C@H](CNC(=O)CC(C)(C)C)NC(=O)CCc2ccccc2)cc1 | > 1000 |  |  |
| CC(C)(C)CNC(=O)C[C@H](NC(=O)CCc1ccccc1)C(=O)N[C@@H](CCc1ccccc1)C(=O)NCc1ccccc1 |  | 89 |  |
| CC(C)(C)CNC(=O)C[C@H](NC(=O)CCc1ccccc1)C(=O)N[C@@H](CCc1ccccc1)C(=O)NCc1ccccc1Cl |  | 20 |  |
| Cc1cc(C(=O)N[C@@H](CC(=O)NCC(C)(C)C)C(=O)N[C@@H](Cc2cccnc2)C(=O)NCc2ccccc2Cl)no1 |  | 170 |  |
| Cc1ccc(CNC(=O)[C@H](CCc2ccccc2)NC(=O)[C@H](Cc2nc(C(C)(C)C)no2)NC(=O)C(=O)c2c[nH]c3ccccc23)cc1 | 11.6 | 36 | IC50 [2]: 30 nM |
| Cc1ccc(CNC(=O)[C@H](CCc2ccccc2)NC(=O)[C@H](Cc2nc(C(C)(C)C)no2)NC(=O)c2cc(C)on2)cc1 | 93 | 1500 | IC50 [2]: 1700 nM |
| Cc1cc(C(=O)N[C@@H](CC(=O)NCC(C)(C)C)C(=O)N[C@@H](Cc2ccc(Cl)cc2)C(=O)NCc2ccccc2Cl)no1 | 16 | 1100 |  |

| Structure (SMILES) | IC50 [1] [nM] | CC50 [3] [nM] | also measured |
| --- | --- | --- | --- |
| Cc1cc(C(=O)N[C@@H](CC(=O)NCC(C)(C)C)C(=O)N[C@@H](Cc2ccncc2)C(=O)NCc2ccccc2Cl)no1 |  | 210 |  |
| Cc1ccc(CNC(=O)[C@H](CCc2ccccc2)NC(=O)[C@H](CNC(=O)CC(C)(C)C)NC(=O)C(=O)c2c[nH]c3ccccc23)cc1 | 910 |  |  |
| C[C@H](NC(=O)[C@H](CC(=O)NCC(C)(C)C)NC(=O)CCc1ccccc1)C(=O)NCc1ccccc1Cl |  | 39 |  |
| CC(C)(C)CNC(=O)C[C@H](NC(=O)C(=O)c1c[nH]c2ccccc12)C(=O)N[C@@H](Cc1ccncc1)C(=O)NCc1ccccc1Cl |  | 6 |  |
| CC(C)(C)CNC(=O)C[C@H](NC(=O)c1ccc(OCc2ccccc2)cc1)C(=O)N[C@@H](CCc1ccccc1)C(=O)NCc1ccccc1 |  | 10 |  |
| CCCNC(=O)C[C@H](NC(=O)c1cc(C)on1)C(=O)N[C@@H](CCc1ccccc1)C(=O)NCc1ccc(C)cc1 | 160 |  |  |
| CC(C)(C)CNC(=O)C[C@H](NC(=O)c1ccc(C(C)(C)C)cc1)C(=O)N[C@@H](CCc1ccccc1)C(=O)NCc1ccccc1 |  | 31 |  |
| Cc1cc(C(=O)N[C@@H](CC(=O)NCC(C)(C)C)C(=O)N[C@@H](C)C(=O)NCc2ccccc2Cl)no1 |  | 200 |  |
| Cc1ccc(CNC(=O)[C@H](CCc2ccccc2)NC(=O)[C@H](CC(=O)NCC(C)C)NC(=O)c2cc(C)on2)cc1 | 7.3 | 250 |  |
| CC(C)(C)CNC(=O)C[C@H](NC(=O)CCc1ccccc1)C(=O)N[C@@H](Cc1cccnc1)C(=O)NCc1ccccc1Cl |  | 61 |  |
| CC(C)(C)CNC(=O)C[C@H](NC(=O)C(C)(C)C)C(=O)N[C@@H](CCc1ccccc1)C(=O)NCc1ccccc1 |  | 210 |  |
| CC(C)C[C@H](NC(=O)[C@H](Cc1ccccc1)NC(=O)c1cnccn1)B(O)O [BORTEZOMIB] |  | 5.2 |  |
| CC(C)(C)CNC(=O)C[C@H](NC(=O)Cc1ccc(F)cc1)C(=O)N[C@@H](CCc1ccccc1)C(=O)NCc1ccccc1Cl |  | 94 |  |
| CC(C)(C)CNC(=O)C[C@H](NC(=O)CN1CCCCC1)C(=O)N[C@@H](CCc1ccccc1)C(=O)NCc1ccccc1 |  | 180 |  |
| Cc1ccc(CNC(=O)[C@H](CCc2ccccc2)NC(=O)[C@H](CNC(=O)CC(C)(C)C)NC(=O)c2cc(C)on2)cc1 | > 1000 |  |  |
| CC(C)C[C@H](NC(=O)CNC(=O)c1cc(Cl)ccc1Cl)B(O)O [IXAZOMIB] |  | 14 |  |
